Molecular target: T1, human NPY Y5 receptor (Homo sapiens, UniProt Q15761)
T1 construct: expressed in transfected cells; host or cells: COS-7, CHO and LM(tk-)
T1 sequence (Q15761 1-445): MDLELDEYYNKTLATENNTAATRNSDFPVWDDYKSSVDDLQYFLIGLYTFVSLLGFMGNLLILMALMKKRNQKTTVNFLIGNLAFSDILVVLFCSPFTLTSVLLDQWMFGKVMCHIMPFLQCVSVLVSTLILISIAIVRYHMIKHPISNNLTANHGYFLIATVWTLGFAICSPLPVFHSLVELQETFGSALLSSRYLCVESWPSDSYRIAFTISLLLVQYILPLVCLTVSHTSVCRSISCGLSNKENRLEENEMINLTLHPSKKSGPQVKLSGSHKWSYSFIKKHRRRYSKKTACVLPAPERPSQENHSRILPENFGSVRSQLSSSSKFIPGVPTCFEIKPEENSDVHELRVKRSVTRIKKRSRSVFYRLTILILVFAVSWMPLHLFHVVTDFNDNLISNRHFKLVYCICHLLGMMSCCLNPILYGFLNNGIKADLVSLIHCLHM
Assay: test of inhibition of NPY binding ([125I] peptide YY binding to membranes of NPY Y5 receptor-expressing cells)
Settings: [125I] peptide YY, 20,000 cpm, 25° C., 2 hours, pH 7.4; membranes of transfected cells; read-out: IC50 value (inhibition of specific binding of peptide YY)
From the text: cDNA Sequence encoding a human NPY Y5 receptor [International Publication Wo 96/16542] was cloned into expression vectors pcDNA3, pRc/RSV (manufactured by Invitrogen) and pCI-neo (manufactured by Promega). Using the cationic lipid method [see Proceedings of the National Academy of Science of the United States of America, vol.84, p.7413 (1987)], host cells COS-7, CHO and LM(tk-) (American Type Culture Collection) were transfected with the thus prepared expression vectors to obtain cells in which the NPY Y5 receptor had been expressed.
Each of the membrane preparations thus prepared from the cells in which the NPY Y5 receptor had been expressed was incubated together with each compound to be tested and 20,000 cpm of [^125 I] peptide YY (manufactured by Amersham) at 25° C. for 2 hours in an assay buffer solution (25 mM HEPES buffer, pH 7.4, containing 10 mM magnesium chloride, 1 mM phenylmethylsulfonyl fluoride and 0.1% bacitracin) and then, the reaction mixture was filtered through a glass filter GF/C. After washing with 50 mM Tris buffer, pH 7.4, containing 0.3% BSA, radioactivity on the glass filter was measured using a gamma counter. […]

IC50: 39 nM
Structure (SMILES): COc1ccc(-c2cc(NC(=O)C3CCN(c4cccc(Cl)c4)CC3)n[nH]2)cc1 [Example 4, 3-[1-(3-chlorophenyl)piperidin-4-yl]carbonylamino-5-(4-methoxyphenyl)pyrazole]

Reference: patent US6166038A, “Aminopyrazole derivatives” (Banyu Pharmaceutical Co., Ltd., priority 1996, dated 2000)
